# Like-named read-outs stand apart in the source and are kept apart here.
# Legend:
# ERK5 [1] = biological target: T1, ERK5 (Homo sapiens, UniProt Q13164); assay: biochemical
# Target sequence in this assay (Q13164 55-347 limits assumed): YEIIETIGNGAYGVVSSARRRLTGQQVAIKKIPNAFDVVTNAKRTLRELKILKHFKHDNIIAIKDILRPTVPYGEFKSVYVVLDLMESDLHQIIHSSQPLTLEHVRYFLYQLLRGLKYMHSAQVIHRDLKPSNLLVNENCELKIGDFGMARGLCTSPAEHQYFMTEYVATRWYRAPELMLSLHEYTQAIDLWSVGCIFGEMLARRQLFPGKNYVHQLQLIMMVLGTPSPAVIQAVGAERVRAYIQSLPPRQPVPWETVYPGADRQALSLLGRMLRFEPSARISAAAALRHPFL
# Method: (§1) Two assays were performed to assess the ERK5 inhibitory activity of compounds of the Examples, a cell-based assay and a cell-free biochemical assay.
# (§2) An assay was performed to measure the capacity of each compound to inhibit ERK5 enzymatic activity. Compound potency was evaluated by Time-Resolved Forster Resonance Energy Transfer (FRET system). […] A mixture of 1 mM ATP and 1 μM biotinylated synthetic peptide was added (Biosyntan GmbH). This synthetic peptide represents amino acids 30-52 of Eukaryotic translation initiation factor 4E-binding protein 1 (see, e.g., the sequence under accession No. NP_004086.1) biotinylated at the N-terminus.
# ERK5 [2] = biological target: T1, ERK5
# Target sequence in this assay (Q13164 whole entry): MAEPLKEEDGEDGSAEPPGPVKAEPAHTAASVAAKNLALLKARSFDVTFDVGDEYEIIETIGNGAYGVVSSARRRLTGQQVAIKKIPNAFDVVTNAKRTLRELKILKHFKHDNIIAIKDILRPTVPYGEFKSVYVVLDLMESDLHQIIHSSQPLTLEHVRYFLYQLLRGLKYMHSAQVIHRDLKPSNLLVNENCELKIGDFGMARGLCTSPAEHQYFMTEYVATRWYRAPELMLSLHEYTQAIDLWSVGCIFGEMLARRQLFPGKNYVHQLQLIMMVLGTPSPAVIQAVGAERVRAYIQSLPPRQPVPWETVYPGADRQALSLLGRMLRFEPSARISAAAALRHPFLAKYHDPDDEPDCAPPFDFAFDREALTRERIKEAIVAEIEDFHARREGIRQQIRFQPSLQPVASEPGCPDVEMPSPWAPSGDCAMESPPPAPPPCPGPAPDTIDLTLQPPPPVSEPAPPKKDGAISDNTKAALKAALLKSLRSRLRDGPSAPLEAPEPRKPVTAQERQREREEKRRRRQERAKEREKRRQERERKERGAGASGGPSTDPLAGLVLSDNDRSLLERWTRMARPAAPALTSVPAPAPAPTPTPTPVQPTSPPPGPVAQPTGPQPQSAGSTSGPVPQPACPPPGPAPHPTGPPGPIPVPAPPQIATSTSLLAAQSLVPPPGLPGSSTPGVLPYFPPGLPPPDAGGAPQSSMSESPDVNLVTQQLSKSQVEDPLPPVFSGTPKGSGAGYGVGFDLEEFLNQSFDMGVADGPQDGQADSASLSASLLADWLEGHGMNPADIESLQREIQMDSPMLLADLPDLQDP
# Method: as §1
# (§3) The renal cancer cell line SN12C was transduced by a lentivirus pGreenFire1 MEF2 EF1 Neo (ref TR030VA-N) from SBI using standard infection protocol. pGreenFire1 MEF2 EF1 Neo allows the expression of luciferase gene under the control of minimal promoter with MEF2 transcriptional response elements. Cells harboring the reporter construct were selected by geneticin treatment. The selected cells were then transposed by a piggyback based plasmid pCM4007 allowing the expression of constitutively activated MEK5DD under control of TREG3 promoter, a doxycycline regulated promoter. Transposed cells were selected by puromycin treatment. Upon doxycycline treatment (1 μg/ml) MEK5DD was expressed. MEK5DD activates ERK5 that phosphorylates MEF2C protein. Activated MEF2C protein can bind to its transcriptional response elements. Then the luciferase is expressed. In a 96-well plate (96F nuncleon ref137101 thermofisher), 50,000 cells were inoculated in 142.5 μl of RPMI medium containing 10% fetal calf serum, 1% glutamine, and 1 μg/ml doxycycline. […] The luciferase activity was measured using the Kit Bright Glo Luminescent Cell Assay Cat E2610 (Promega) according to the manufacturer's protocol. Luminescence was determined using 0.2 second reading/well using a Tecan SPARK. IC50 values were calculated using XLFIT5 for Microsoft Excel using method 205.
# ERK5 [3] = biological target: T1, ERK5; assay: cell-based
# Target sequence in this assay (Q13164 whole entry): as above
# Method: as §1, §3
# ERK5 [4] = biological target: T1, ERK5; remark: listed apart in the source
# Target sequence in this assay (Q13164 55-347 limits assumed): as the sequence (Q13164 55-347 limits assumed) above
# Method: as §1, §2
SMILES,IC50 (ERK5 [1]),IC50 (ERK5 [2]),IC50 (ERK5 [3]),IC50 (ERK5 [4])
"COC12CC(c3nc4c(C5CCN(C(=O)c6ccc(OC(F)(F)F)cc6N)CC5)c(F)cnc4[nH]3)(C1)C2 [Example 428, [2-amino-4-(trifluoromethoxy)phenyl]-[4-[6-fluoro-2-(3-methoxy-1-bicyclo[1.1.1]pentanyl)-3H-imidazo[4,5-b]pyridin-7-yl]-1-piperidyl]methanone]",28 nM,5 nM,–,–
"CN1CCC(c2nc3c(C4CCN(C(=O)c5ccc(OC(F)(F)F)cc5)CC4)ccnc3[nH]2)C1 (single isomer, unassigned) [Example 25, [4-[2-(1-Methylpyrrolidin-3-yl)-3H-imidazo[4,5-b]pyridin-7-yl]-1-piperidyl]-[4-(trifluoromethoxy)phenyl]methanone]",–,–,179 nM,148 nM

# Source: patent publication US20260022116A1, “IMIDAZOPYRIDINE COMPOUNDS, PREPARATION THEREOF AND THERAPEUTIC USES THEREOF” (SANOFI, priority 2022, published 2026)
